Data as given in patent US20020013478A1, “Calanolide analogues and methods of their use” (Sarawak Medichem Pharmaceuticals,Inc., priority 1994, published 2002).
Where two headings read alike, the source gives them in different places.

Tests used:
CEM-SS cells = experiment: CEM-SS MTT assay, cytotoxicity (Table I); assay type: cell-based, human
[1] = system: HCMV isolates Towne, AD169, E. Mann, Coffman, C9208; experiment: Anti-CMV plaque reduction assay against various laboratory and clinical isolates (Example 40); assay type: cell-based, human cytomegalovirus
Procedure: On the date of assay, the drug is made up at twice the desired concentration in 2x MEM and then serially diluted 1:5 in 2x MEM using six concentrations of drug. The initial starting concentration is usually 200 gg/mL down to 0.06 μg/mL. […] The media is then aspirated from the wells and 0.2 mL of virus is added to each well in duplicate with 0.2 mL of media being added to drug toxicity wells. The plates are then incubated for one hour with shaking every fifteen minutes. […] This will give final drug concentrations beginning with 100 μg/mL and ending with 0.03 μg/mL and a final agarose overlay concentration of 0.5%. The drug agarose mixture is applied to each well in 2 mL volume and the plates then incubated for three days, after which the cells were stained with a 1.5% solution of neutral red. At the end of 4-6hr incubation period, the stain is aspirated, and plaques counted using a stereomicroscope at lOx magnification. The procedure again is nearly the same as for HSV with a few minor changes. […] The assay is incubated for 14 days with the additional 1 mL overlays being applied on days four and eight. The procedure for the liquid overlay plaque assay is similar to that using the agarose overlay. The procedure for adding the virus is the same as for the regular plaque assay. The drugs are made up in a concentration to be used in MEM with 2% FBS. The drugs are not made up at 2x concentration as in the previous assays but are made up at the desired concentration. For HSV-1 and HSV-2 assays, an antibody preparation obtained from Baxter Health Care Corporation is diluted 1:500 and added to the media that the drug is diluted in. For CMV and VZV, no antibody in the overlay is utilized. For the CMV assay, additional medium without new drug is added on day five and allowed to incubate for a total of 10 days. For VZV, additional medium is added on day five and incubated for a total of 10 days. At the end of the incubation period for all of the assays, 2 mL of 1:10 dilution of stock neutral is added to each well incubated for six hours. The liquid is then aspirated off and plaques enumerated using a stereomicroscope. Five calanolide analogues, prepared as described above, were further evaluated for their anti-HCMV activity in plaque reduction assay against various laboratory and clinical isolates (Towne, AD 169, E. Mann, Coffinan, and […]).

HIV-1 = conditions: for EC50 / Maximum Protection (%): CEM-SS MTT assay; for protecting cells against HIV infection: text summary of Table I
HCMV = HCMV semi-automated CPE-inhibition assay in human foreskin fibroblast cells; assay type: cell-based, human cytomegalovirus; conditions: Table II
HBV = HBV replication in cultures of 2.2.15 cells, extracellular HBV virion DNA (primary assay); conditions: read-out: HBV EC50; Table II
2.2.15 cells = experiment: Toxicity in 2.2.15 cells, neutral red dye uptake; assay type: cell-based, human; conditions: Table II; read-out: HBV IC50
Procedure: Cells of 2.2.15 were grown to confluence in 96-well flat-bottomed tissue culture plates and treated with compounds (in 0.2 mL culture medium/well) as described above. Four concentrations of each compound were assayed, each in triplicate cultures, in 3- to 10-fold steps. Untreated control cultures were maintained on each 96-well plate. On each 96-well plate, wells containing no cells were used to correct for light scattering.

[2] = system: human foreskin fibroblast cells; experiment: Toxicity run with the HCMV assay, human foreskin fibroblast cells; assay type: cell-based; conditions: Table II
Procedure: [table] […] The media from the wells is then aspirated and 2 mL of each drug concentration is then added to each well. The cells are then incubated in a CO2 incubator at 37° C. for 72 h. At the end of this time, the media-drug solution is removed and the cells washed. […] The cell-media mixture is then pipetted up and down vigorously to break up the cell suspension, and 0.2 mL of the mixture is added to 9.8 mL of Isoton III and counted using a Coulter Counter. Each sample is counted three times with three replicate wells per sample. The procedure for plating cells and adding drug is the same as for the MTT Assay. After drug addition, the plates are incubated for seven days in a CO2 incubator at 37° C. […] This is incubated in the CO2 incubator for one hour. The dye is aspirated and the cells are washed using a Nunc Plate Washer. […] The plates are rotated for 15 minutes and the optical densities are read at 550 nm on a plate reader.

Row | Structure (SMILES) | IC50 (CEM-SS cells) [µM] | EC50 (HIV-1) [µM] | Maximum Protection (%) (HIV-1) | protecting cells against HIV infection (HIV-1) | further results
1 | CCCc1cc(=O)oc2c3c(c4c(c12)OC(C)(C)C=C4)OC(C)C(C)C3=O (racemic) [(±)-7, 10,11-trans-dihydro-4-propyl-6,6,10,11-tetramethyl-2H,6H,12H-benzo[1,2-b:3,4-b′:5,6-b″]-tripyran-2,12-dione] | 19.1 | 1.18 | 90 | highly efficacious | EC50 ([1]; isolate AD169): 3.16 µM; EC50 ([1]; isolate C9208): 7.16 µM; EC50 ([1]; isolate Coffman): 3.34 µM; EC50 ([1]; isolate E. Mann): 3.16 µM; EC50 ([1]; isolate Towne): 3.34 µM
2 | CCCc1cc(=O)oc2c(C(=O)C(C)(C)C(C)O)c(O)c3c(c12)OC(C)(C)C=C3 (racemic) [(±)-14a, (±)-6,6-Dimethyl-10-(2,2-dimethyl-3-hydroxybutyro)-9-hydroxy-4-propyl-2H,6H-benzo[1,2-b:3,4-b′]dipyran-2-one] | 37 |  |  |  | 
3 | CCCc1cc(=O)oc2c(C(=O)C(C)C(C)(C)O)c(O)c3c(c12)OC(C)(C)C=C3 (racemic) [(±)-14b, (±)-6.6-Dimethyl-10-(2,3-dimethyl-3-hydroxybutyro)-9-hydroxy4-propyl-2H,6H-benzo[1,2-b:3,4-b′]dipyran-2-one] | 27.1 |  |  |  | 
4 | CCCc1cc(=O)oc2c3c(c4c(c12)OC(C)(C)C=C4)OC(C)C(C)(C)C3O (racemic) [(±)-16a, (±)-10,12-cis-10,11-Dihydro-12-hydroxy-6,6,10,11,11-pentamethyl-4propyl-2H, 6H, 12H-benzo [1,2-b:3,4-b′:5,6-b″]tripyran-2-one] | 20.3 |  |  |  | 
5 | CCCc1cc(=O)oc2c3c(c4c(c12)OC(C)(C)C=C4)OC(C)C(C)(C)C3O (racemic) [(±)-16b, (±)-10,12-trans-10,11-dihydro-12-hydroxy-6,6,10,11,11-pentamethyl-4-propyl-2H,6H,12H-benzo [1,2-b:3,4-b′:5,6-b″]tripyran-2-one] | 16.9 | 2.36 | 78 | highly efficacious | 
6 | CCCc1cc(=O)oc2c3c(c4c(c12)OC(C)(C)C=C4)OC(C)(C)C(C)C3O (racemic) [(±)-16c, (±)-11,12-cis-10,11-Dihydro-12-hydroxy-6,6,10,10,11-pentamethyl-4-propyl-2H, 6H, 12H-benzo [1,2-b:3,4-b′:5,6-b″]tripyran-2-one] | 21.3 |  |  |  | 
7 | CCCc1cc(=O)oc2c3c(c4c(c12)OC(C)(C)C=C4)OC(C)(C)C(C)C3O (racemic) [(±)-16d, (±)-11,12-trans-10,11-dihydro-12-hydroxy-6,6,10,10,11-pentamethyl-4-propyl-2H,6H,12H-benzo [1,2-b:3,4-b′:5,6-b″]tripyran-2-one] | 21 | 5.66 | 88 | highly efficacious | 
8 | CCCc1cc(=O)oc2c3c(c4c(c12)OC(C)(C)C=C4)OC(CC)C(C)C3O (racemic) [(±)-16e, (±)-10,11-trans-11,12-cis-10,11-Dihydro-10-ethyl-12-hydroxy-4-propyl-6,6,11-trimethyl-2H,6H,12H-benzo [1,2-b:3,4-b′:5,6-b″]tripyran-2-one] | 14 | 1.67 | 88 | highly efficacious | 
9 | CCCc1cc(=O)oc2c3c(c4c(c12)OC(C)(C)C=C4)OC(CC)C(C)C3O (racemic) [(±)-16f, (±)-10,11-qrans-11,12-trans-10,11-dihydro-10-ethyl-12-hydroxy4-propyl-6,6,11-trimethyl-2H,6H,12H-benzo [1,2-b:3,4-b′:5,6-b″]tripyran-2-one] | 17.7 | 1.97 | 86 | highly efficacious | 
10 | CCCc1cc(=O)oc2c3c(c4c(c12)OC(C)(C)C=C4)OC(CC)C(C)C3O (racemic) [(±)-16g, (±)-10,11-cis-11,12-trans-10,11-Dihydro-10-ethyl-12-hydroxy-4-propyl-6,6,11-trimethyl-2H,6H,12H-benzo [1,2-b:3,4-b′:5,6-b″]tripyran-2-one] | 11.6 |  |  |  | 
11 | CCCc1cc(=O)oc2c3c(c4c(c12)OC(C)(C)C=C4)OC(CC)C(C)C3O (racemic) [(±)-16h, (±)-10,11,12-cis-10,11-dihydro10-ethyl-12-hydroxy4-propyl-6,6,11-trimethyl-2H,6H,12H-benzo [1,2-b:3,4-b′:5,6-b″]tripyran-2-one] | 20.9 |  |  |  | 
12 | CCCc1cc(=O)oc2c3c(c4c(c12)OC(C)(C)C=C4)O[C@H](C)[C@@H](C)C3=NO (racemic) [(±)-19a, (±)10,11-trans-10,11-Dihydro4-propyl-6,6,10,11-tetramethyl-2H, 6H, 12H-benzo [1,2-b:3,4-b′:5,6-b″]tripyran-2,12-dione-12-oxime] | 15.8 |  |  |  | 
13 | CCCc1cc(=O)oc2c3c(c4c(c12)OC(C)(C)C=C4)OC(C)C(C)C3=NOC (racemic) [(±)-19b, (±)-10,11-trans-10,11 -Dihydro4-propyl-6,6,10,11-tetramethyl-2H, 6H, 12H-benzo [1,2-b:3,4-b′:5,6-b ″]tripyran-2,12-dione-12-methoxime] | > 100 | > 100 |  |  | 
14 | CCCc1cc(=O)oc2c3c(c4c(c12)OC(C)(C)C=C4)OC(C)C(C)C3=O (single isomer, unassigned; (-)) [(−)-7a] |  |  |  |  | HCMV EC50 (HCMV): >4.0 µg/mL; EC50 (HBV): > 10 µM; IC50 (2.2.15 cells): 86 µM; HCMV IC50 [2]: 11.9 µg/mL
15 | CCCc1cc(=O)oc2c(C(=O)[C@H](C)[C@@H](C)OC(C)=O)c(O)c3c(c12)OC(C)(C)C=C3 [(+)-10, 6,6Dimethyl-9-hydroxy-10-[2(R)-methyl-3(R)-acetoxybutyro]-4-propyl-2H,6H-benzo-[1,2-b:3,4-b′]dipyran-2-one] | 9.27 | 0.89 | 88 | highly efficacious | 
16 | CCCc1cc(=O)oc2c3c(c4c(c12)OC(C)(C)C=C4)O[C@@H](C)C(C)=C3 [Compound 22, 10(S)4-propyl-6,6,10,11-tetramethyl-2H,6H,10H-benzo [1,2-b:3,4-b′:5,6-b″]tripyran-2-one] |  |  |  |  | IC50 (CEM-SS cells; Homo sapiens): 24.7 µM
